The source of these data is patent US20080008660A1, “Antimicrobially active compounds for treating bad breath” (Symrise GmbH & Co. KG, priority 2006, published 2008).

Converted amounts (≈) assume the structure as drawn.

Format in all cases: cell-based
In assay [1] the test system is fresh morning saliva. Kind of assay: In-vitro test for reducing bad breath (liquid medium inoculated with fresh morning saliva, smelt by a test panel). As to conditions: for formation of bad breath / smell after incubation: 0.1%. The procedure:
This test is based on the work of Goldberg and Rosenberg (Production of Oral Malodor in an in vitro System, S. Goldberg and M. Rosenberg, pp. 143-150, in: Bad Breath—A multidisciplinary Approach, Eds: D. van Steenberghe, M. Rosenberg, Leuven University Press, 1996) and was adapted for the purposes of better reproducibility.
A sterile liquid medium that is inoculated with fresh morning saliva is incubated for a few days at 37° C. and then smelt by a test panel.
An intensive typical smell of bad breath had formed. Non-inoculated controls only have a weak to moderate smell of bad breath.
Triclosan® in a concentration of 0.05% was added as control for the tests.
The minimum effective concentrations of various compounds of the Formula 1 or of the Formula 1A at which no smell could be detected are shown hereinafter: […]

The subject of assay [2] is Candida albicans. Briefly: Effect against germs not connected with bad breath. As to conditions: 1,000 ppm.
Assay [3] has as its system Escherichia coli. Briefly: Effect against germs not connected with bad breath. The settings on record: 1,000 ppm.
The test system of assay [4] is Aspergillus niger. Briefly: Effect against germs not connected with bad breath. The settings on record: 1,000 ppm.
In assay [5] the test system is Veillonella parvula. Briefly: Minimal inhibiting concentration, series dilution test. As to conditions: bactericide. As for the experimental part: (§1) The minimal inhibiting concentration (MIC) was determined by way of example for 2-(benzoylamino) benzoic acid (Compound 27) in a series dilution test against various germs found in the mouth.
The test system of assay [6] is Staphylococcus aureus. Described as above. The settings on record: bactericide. The procedure:
as §1

Assay [7] has as its system Prevotella intermedia. The description is as above. The procedure:
as §1

The subject of assay [8] is Fusobacterium nucleatum. The description is as above. The procedure:
as §1

The mark [9] stands for this setting: medium inoculated with fresh morning saliva, incubated a few days at 37° C., test panel.

`O=C(/C=C/c1ccc(O)c(O)c1)Nc1ccccc1C(=O)O` [Compound 2, 2-{[(2E)-3-(3,4-dihydroxyphenyl)prop-2-enoyl]amino}benzoic acid]: in assay [1] (setting [9]), the “minimum effective concentration at which no smell could be detected” value is 0.005%.
With `O=C(/C=C/c1ccc(O)c(O)c1)Nc1ccc(O)cc1C(=O)O` [Compound 3, 5-hydroxy-2-{[(2E)-3-(3,4-dihydroxyphenyl)prop-2-enoyl]amino}benzoic acid], the “minimum effective concentration at which no smell could be detected” value in assay [1] (setting [9]) is 0.0025%.
Turning to `COc1cc(/C=C/C(=O)Nc2ccc(O)cc2C(=O)O)ccc1O` [Compound 4, 5-hydroxy-2-{[(2E)-3-(4-hydroxy-3-methoxyphenyl)prop-2-enoyl]amino}benzoic acid], the “minimum effective concentration at which no smell could be detected” value is reported as 0.01% in assay [1] (setting [9]) and “(=100 ppm)” in assay [1] (same value given in ppm).
Taken in the same sequence, the figures for `O=C(/C=C/c1ccc(O)cc1)Nc1ccc(O)cc1C(=O)O` [Compound 7, 5-hydroxy-2-{[(2E)-3-(4-hydroxyphenyl)prop-2-enoyl]amino}benzoic acid] were 0.005% and “(=50 ppm)”.
Consider `O=C(CCc1ccc(O)cc1)Nc1ccccc1C(=O)O` [Compound 8, 2-{[3-(4-hydroxyphenyl)propanoyl]amino}benzoic acid], for which the “minimum effective concentration at which no smell could be detected” value in assay [1] (setting [9]) is 0.005%.
With `COc1cc(/C=C/C(=O)Nc2ccccc2C(=O)O)ccc1O` [Compound 9, 2-{[(2E)-3-(4-hydroxy-3-methoxyphenyl)prop-2-enoyl]amino}benzoic acid], in assay [1] (setting [9]), the “minimum effective concentration at which no smell could be detected” value amounted to 0.005%.
Consider `O=C(/C=C/c1ccc(O)cc1)Nc1ccccc1C(=O)O` [Compound 10, 2-{[(2E)-3-(4-hydroxyphenyl)prop-2-enoyl]amino}benzoic acid], for which the “effect against the germ” value in assay [2], in assay [3] and in assay [4] was “did not have any effect” in each case. The “minimum effective concentration at which no smell could be detected” value is on record as 0.0025% in assay [1] (setting [9]) and “(=25 ppm)” in assay [1] (same value given in ppm).
As for `O=C(/C=C/c1ccccc1)Nc1ccc(O)cc1C(=O)O` [Compound 12, 5-Hydroxy-2-{[(2E)-3-phenylprop-2-enoyl]amino}benzoic acid], in assay [1] (setting [9]), the “minimum effective concentration at which no smell could be detected” value was determined as 0.0025%.
For the molecule `COc1ccc(/C=C/C(=O)Nc2ccc(O)cc2C(=O)O)cc1OC` [Compound 13, 5-Hydroxy-2-{[(2E)-3-(3,4-dimethoxyphenyl)prop-2-enoyl]amino}benzoic acid], the “minimum effective concentration at which no smell could be detected” value in assay [1] (setting [9]) was 0.01%.
Take `O=C(Nc1ccccc1C(=O)O)c1ccc(O)c(O)c1` [Compound 20, 2-[(3,4-dihydroxybenzoyl)amino]benzoic acid]: the “minimum effective concentration at which no smell could be detected” value in assay [1] (setting [9]) was determined as 0.005%.
Same read-out and setting: next, `COc1ccc(C(=O)Nc2ccccc2C(=O)O)cc1O` [Compound 23, 2-[(3-hydroxy-4-methoxybenzoyl)amino]benzoic acid]: 0.0025%; `O=C(Nc1ccccc1C(=O)O)c1ccc(O)cc1` [Compound 24, 2-[(4-hydroxybenzoyl)amino]benzoic acid]: 0.001%.
Consider `COc1cc(C(=O)Nc2ccccc2C(=O)O)ccc1O` [Compound 25, 2-[(4-hydroxy-3-methoxybenzoyl)amino]benzoic acid], for which the “minimum effective concentration at which no smell could be detected” value in assay [1] (setting [9]) is reported as 0.001%.
Same read-out and setting: next, `O=C(Nc1ccccc1C(=O)O)c1ccc(O)cc1O` [Compound 26, 2-[(2,4-dihydroxybenzoyl)amino]benzoic acid]: 0.0025%.
For the molecule `O=C(Nc1ccccc1C(=O)O)c1ccccc1` [Compound 27, 2-(benzoylamino)-benzoic acid], the smell after incubation entry was “a non unpleasant smell could be detected, which did not bear any resemblance to bad breath” in assay [1] (0.001 wt. %) and “no smell” in assay [1] (0.0025 wt. %). Also, the “minimum effective concentration at which no smell could be detected” value in assay [1] (setting [9]) was 0.0025%. Further, the MIC came out at 250 µg/mL (≈ 1040 µM) in assay [5]; 500 µg/mL (≈ 2070 µM) in assay [6]; 1000 µg/mL (≈ 4150 µM) in assay [7] (bactericide); 500 µg/mL (≈ 2070 µM) in assay [7] (bacteriostatic); 1000 µg/mL (≈ 4150 µM) in assay [8] (bactericide); 500 µg/mL (≈ 2070 µM) in assay [8] (bacteriostatic).
`O=C(Nc1ccccc1C(=O)O)c1cccc(O)c1` [Compound 28, 2-[(3-hydroxybenozyl)amino]benzoic acid]: the “minimum effective concentration at which no smell could be detected” value is 0.0005% in assay [1] (setting [9]) and “(=5 ppm)” in assay [1] (same value given in ppm).
Turning to `O=C(Nc1ccccc1C(=O)O)c1ccccc1O` [Compound 29, 2-[(2-hydroxybenzoyl)amino]benzoic acid], in assay [1] (setting [9]), the “minimum effective concentration at which no smell could be detected” value amounted to 0.0025%.
As for `O=C(Nc1cc(O)ccc1C(=O)O)c1ccc(O)cc1` [Compound 75, 4-hydroxy-2-[(4-hydroxybenzoyl]amino}benzoic acid], the “minimum effective concentration at which no smell could be detected” value in assay [1] (setting [9]) is reported as 0.01%.
The same measure, in the same setting: the same measure for `O=C(Nc1ccccc1)c1ccccc1O` [Compound 100, Salicylanilide]: 0.0025%.
Still for that read-out and setting: the same measure for `COc1ccc(/C=C/C(=O)Nc2ccccc2C(=O)O)cc1` [Compound 101, 2-{[(2E)-3-(4-methoxyphenyl)prop-2-enoyl]amino}benzoic acid]: 0.0025%.
As to `O=C(/C=C/c1ccccc1)Nc1ccccc1C(=O)O` [Compound 102, 2-{[(2E)-3-phenylprop-2-enoyl]amino}benzoic acid], the “minimum effective concentration at which no smell could be detected” value is on record as 0.001% in assay [1] (setting [9]) and “(=10 ppm)” in assay [1] (same value given in ppm).
As to `Oc1cc(Cl)ccc1Oc1ccc(Cl)cc1Cl` [Triclosan, reference compound], the smell after incubation result in assay [1] (0.05%, control) is listed as “the same smell as the non-inoculated flasks”.
As to `C=CCc1ccc(O)c(OC)c1` [eugenol, reference compound], in assay [1], the “formation of bad breath / smell after incubation” value is listed as “suppressed the formation of bad breath”.
On the same count and under the same terms, next, `Cc1ccc(C(C)C)c(O)c1` [thymol, reference compound]: “suppressed the formation of bad breath”.
